Data taken from patent US11969428B2, “Methods and pharmaceutical compositions for treating lymphoid malignancy” (priority 2011, dated 2024).

Assays:
Assay in all cases: Ambit KinomeScan screening
Assay type in all cases: binding
Conditions in all cases: CAL-130 10 μM
[1] = target: T1, ACVR1 (Homo sapiens, UniProt Q04771)
T1 construct: unspecified tag ("tagged kinases"); purchased Ambit (KinomeScan screening)
Summary of the method: (§1)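 Competition binding, 10 μM CAL-130 vs immobilized bait ligand; tagged kinases; readout % of control binding (lower = tighter); >35% = non-hit.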

[2] = target: T2, AURKC (Homo sapiens, UniProt Q9UQB9)
T2 construct: purchased Ambit (KinomeScan screening service)
Summary of the method: as §1

[3] = target: T3, BRAF (Homo sapiens, UniProt P15056)
T3 construct: unspecified tag ("tagged kinases"); purchased Ambit (KinomeScan screening)
Summary of the method: as §1

[4] = target: T4, BRSK2 (Homo sapiens, UniProt Q8IWQ3)
T4 construct: unspecified tag ("tagged kinases"); purchased Ambit (KinomeScan screening)
Summary of the method: as §1

[5] = target: T5, CAMK2B (Homo sapiens, UniProt Q13554)
T5 construct: purchased Ambit (KinomeScan screening)
Summary of the method: as §1

[6] = target: T6, CAMK2D (Homo sapiens, UniProt Q13557)
T6 construct: purchased Ambit (KinomeScan screening)
Summary of the method: as §1

[7] = target: T7, CAMKK2 (Homo sapiens, UniProt Q96RR4)
T7 construct: purchased Ambit (KinomeScan screening)
Summary of the method: as §1

[8] = target: T8, CHEK2 (Homo sapiens, UniProt O96017)
T8 construct: purchased Ambit (KinomeScan screening service)
Summary of the method: as §1

[9] = target: T9, CSNK2A1 (Homo sapiens, UniProt P68400)
T9 construct: purchased Ambit (KinomeScan screening service)
Summary of the method: as §1

[10] = target: T10, DCAMKL2 (Homo sapiens, UniProt Q8N568)
T10 construct: unspecified tag ("tagged kinases"); purchased Ambit (KinomeScan screening service)
Summary of the method: as §1

[11] = target: T11, DDR2 (Homo sapiens, UniProt Q16832)
T11 construct: unspecified tag ("tagged kinases"); purchased Ambit (KinomeScan screening service)
Summary of the method: as §1

[12] = target: T12, DLK (Homo sapiens, UniProt Q12852)
T12 construct: unspecified tag ("tagged kinases"); purchased Ambit (KinomeScan screening service)
Summary of the method: as §1

[13] = target: T13, DRAK2 (Homo sapiens, UniProt O94768)
T13 construct: unspecified tag ("tagged kinases"); purchased Ambit (KinomeScan screening service)
Summary of the method: as §1

[14] = target: T14, EGFR(S752-I759DEL) (Homo sapiens, UniProt P00533, DEL752-759)
T14 construct: unspecified tag; purchased Ambit (KinomeScan screening service)
Summary of the method: as §1

[15] = target: T15, FGFR2 (Homo sapiens, UniProt P21802)
T15 construct: unspecified tag; purchased Ambit (KinomeScan screening service)
Summary of the method: as §1

[16] = target: T16, FGR (Homo sapiens, UniProt P09769)
T16 construct: unspecified tag; purchased Ambit (KinomeScan screening service)
Summary of the method: as §1

[17] = target: T17, GAK (Homo sapiens, UniProt O14976)
T17 construct: unspecified tag ('tagged kinases'); purchased Ambit (KinomeScan screening service)
Summary of the method: as §1

[18] = target: T18, GSK3A (Homo sapiens, UniProt P49840)
T18 construct: unspecified tag ('tagged kinases'); purchased Ambit (KinomeScan screening service)
Summary of the method: as §1

[19] = target: T19, IGF1R (Homo sapiens, UniProt P08069)
T19 construct: Ambit (KinomeScan screening)
Summary of the method: as §1

[20] = target: T20, IRAK1 (Homo sapiens, UniProt P51617)
T20 construct: Ambit (KinomeScan screening)
Summary of the method: as §1

[21] = target: T21, IRAK3 (Homo sapiens, UniProt Q9Y616)
T21 construct: purchased Ambit (KinomeScan screening)
Summary of the method: as §1

[22] = target: T22, KIT(D816V) (Homo sapiens, UniProt P10721, D816V)
T22 construct: purchased Ambit (KinomeScan screening)
Summary of the method: as §1

[23] = target: T23, LATS1 (Homo sapiens, UniProt O95835)
T23 construct: unspecified tag ('tagged kinases'); purchased Ambit (KinomeScan screening service)
Summary of the method: as §1

[24] = target: T24, LYN (Homo sapiens, UniProt P07948)
T24 construct: unspecified tag ('tagged kinases'); purchased Ambit (KinomeScan screening service)
Summary of the method: as §1

[25] = target: T25, MAP3K1 (Homo sapiens, UniProt Q13233)
T25 construct: Ambit (KinomeScan screening)
Summary of the method: as §1

[26] = target: T26, MAP4K4 (Homo sapiens, UniProt O95819)
T26 construct: Ambit (KinomeScan screening)
Summary of the method: as §1

[27] = target: T27, MARK1 (Homo sapiens, UniProt Q9P0L2)
T27 construct: Ambit (KinomeScan screening)
Summary of the method: as §1

[28] = target: T28, MET(Y1235D) (Homo sapiens, UniProt P08581, Y1235D)
T28 construct: unspecified tag ('tagged kinases'); purchased Ambit (KinomeScan screening)
Summary of the method: as §1

[29] = target: T29, MST4 (Homo sapiens, UniProt Q9P289)
T29 construct: unspecified tag; purchased Ambit (KinomeScan screening panel)
Summary of the method: as §1

[30] = target: T30, PAK2 (Homo sapiens, UniProt Q13177)
T30 construct: purchased Ambit (KinomeScan screening service)
Summary of the method: as §1

[31] = target: T31, PAK7 (Homo sapiens, UniProt Q9P286)
T31 construct: unspecified tag ('tagged kinases'); purchased Ambit (KinomeScan screening)
Summary of the method: as §1

[32] = target: T32, PFTAIRE2 (Homo sapiens, UniProt Q96Q40)
T32 construct: unspecified tag ('tagged kinases'); purchased Ambit (KinomeScan screening)
Summary of the method: as §1

[33] = target: T33, PIP5K2B (Homo sapiens, UniProt P78356)
T33 construct: unspecified tag; purchased Ambit (KinomeScan screening panel)
Summary of the method: as §1

[34] = target: T34, PLK3 (Homo sapiens, UniProt Q9H4B4)
T34 construct: purchased Ambit (KinomeScan screening service)
Summary of the method: as §1

[35] = target: T35, ULK3 (Homo sapiens, UniProt Q6PHR2)
T35 construct: tag, kind not specified; purchased Ambit (KinomeScan screening service)
Summary of the method: as §1

[36] = target: T36, WEE1 (Homo sapiens, UniProt P30291)
T36 construct: purchased Ambit (KinomeScan screening service)
Summary of the method: as §1

[37] = target: T37, YANK3 (Homo sapiens, UniProt Q86UX6)
T37 construct: purchased Ambit (KinomeScan screening service)
Summary of the method: as §1

T35 sequence (Q6PHR2 whole entry): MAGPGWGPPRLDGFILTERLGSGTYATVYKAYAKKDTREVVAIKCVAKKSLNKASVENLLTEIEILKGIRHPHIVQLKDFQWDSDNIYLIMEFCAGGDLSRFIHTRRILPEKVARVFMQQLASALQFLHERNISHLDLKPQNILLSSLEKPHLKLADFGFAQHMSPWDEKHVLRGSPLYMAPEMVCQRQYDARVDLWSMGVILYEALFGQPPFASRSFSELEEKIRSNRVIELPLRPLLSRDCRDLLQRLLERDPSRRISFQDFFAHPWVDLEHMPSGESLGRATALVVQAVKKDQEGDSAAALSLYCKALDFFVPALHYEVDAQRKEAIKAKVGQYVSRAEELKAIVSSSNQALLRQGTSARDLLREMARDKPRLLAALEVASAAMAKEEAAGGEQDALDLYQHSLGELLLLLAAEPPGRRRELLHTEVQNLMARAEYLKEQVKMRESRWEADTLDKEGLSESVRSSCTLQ
T22 sequence (P10721 26-976 D816V): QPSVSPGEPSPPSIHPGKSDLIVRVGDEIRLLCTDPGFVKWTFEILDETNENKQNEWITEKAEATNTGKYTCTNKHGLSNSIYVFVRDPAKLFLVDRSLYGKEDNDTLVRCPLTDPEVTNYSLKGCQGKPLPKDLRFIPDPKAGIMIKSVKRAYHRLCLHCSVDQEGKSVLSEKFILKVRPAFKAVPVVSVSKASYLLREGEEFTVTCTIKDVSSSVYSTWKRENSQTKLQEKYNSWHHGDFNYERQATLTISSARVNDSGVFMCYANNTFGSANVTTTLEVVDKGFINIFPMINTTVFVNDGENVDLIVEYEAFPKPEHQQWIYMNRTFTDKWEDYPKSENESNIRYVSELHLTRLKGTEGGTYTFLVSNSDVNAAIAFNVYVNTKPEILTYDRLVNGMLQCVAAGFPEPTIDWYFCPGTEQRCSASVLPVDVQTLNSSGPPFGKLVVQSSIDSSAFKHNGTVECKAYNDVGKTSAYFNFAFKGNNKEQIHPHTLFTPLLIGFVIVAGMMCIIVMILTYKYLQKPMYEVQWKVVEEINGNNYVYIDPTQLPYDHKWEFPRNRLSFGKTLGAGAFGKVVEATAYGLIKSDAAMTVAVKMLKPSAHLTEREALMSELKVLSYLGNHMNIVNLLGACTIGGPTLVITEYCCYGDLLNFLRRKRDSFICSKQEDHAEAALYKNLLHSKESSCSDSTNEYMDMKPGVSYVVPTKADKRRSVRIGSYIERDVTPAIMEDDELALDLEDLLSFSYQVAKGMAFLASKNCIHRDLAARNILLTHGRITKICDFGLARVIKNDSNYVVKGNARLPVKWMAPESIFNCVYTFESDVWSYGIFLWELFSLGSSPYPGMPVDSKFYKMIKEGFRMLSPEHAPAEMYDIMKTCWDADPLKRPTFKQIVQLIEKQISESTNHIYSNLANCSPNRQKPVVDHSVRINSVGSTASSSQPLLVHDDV
T27 sequence (Q9P0L2 whole entry): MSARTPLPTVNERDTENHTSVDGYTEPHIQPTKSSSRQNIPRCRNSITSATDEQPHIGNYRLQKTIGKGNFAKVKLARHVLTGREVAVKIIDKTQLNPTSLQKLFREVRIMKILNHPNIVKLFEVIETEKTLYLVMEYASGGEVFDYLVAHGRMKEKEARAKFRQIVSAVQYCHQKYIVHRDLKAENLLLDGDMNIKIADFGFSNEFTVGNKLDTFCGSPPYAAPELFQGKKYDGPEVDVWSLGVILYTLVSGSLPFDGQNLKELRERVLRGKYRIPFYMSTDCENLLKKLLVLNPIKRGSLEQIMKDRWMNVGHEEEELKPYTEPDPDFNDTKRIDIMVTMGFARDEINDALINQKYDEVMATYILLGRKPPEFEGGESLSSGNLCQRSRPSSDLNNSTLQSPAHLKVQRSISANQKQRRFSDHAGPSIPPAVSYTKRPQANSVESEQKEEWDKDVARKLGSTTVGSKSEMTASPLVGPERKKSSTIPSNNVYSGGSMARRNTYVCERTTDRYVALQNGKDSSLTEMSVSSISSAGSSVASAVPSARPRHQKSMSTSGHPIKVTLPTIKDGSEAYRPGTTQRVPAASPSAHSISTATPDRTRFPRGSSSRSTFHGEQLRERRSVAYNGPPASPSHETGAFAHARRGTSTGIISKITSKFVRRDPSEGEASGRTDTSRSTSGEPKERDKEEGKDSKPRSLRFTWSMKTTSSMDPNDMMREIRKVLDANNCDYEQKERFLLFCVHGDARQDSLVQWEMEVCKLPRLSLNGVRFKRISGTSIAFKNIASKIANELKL
T31 sequence (Q9P286 whole entry): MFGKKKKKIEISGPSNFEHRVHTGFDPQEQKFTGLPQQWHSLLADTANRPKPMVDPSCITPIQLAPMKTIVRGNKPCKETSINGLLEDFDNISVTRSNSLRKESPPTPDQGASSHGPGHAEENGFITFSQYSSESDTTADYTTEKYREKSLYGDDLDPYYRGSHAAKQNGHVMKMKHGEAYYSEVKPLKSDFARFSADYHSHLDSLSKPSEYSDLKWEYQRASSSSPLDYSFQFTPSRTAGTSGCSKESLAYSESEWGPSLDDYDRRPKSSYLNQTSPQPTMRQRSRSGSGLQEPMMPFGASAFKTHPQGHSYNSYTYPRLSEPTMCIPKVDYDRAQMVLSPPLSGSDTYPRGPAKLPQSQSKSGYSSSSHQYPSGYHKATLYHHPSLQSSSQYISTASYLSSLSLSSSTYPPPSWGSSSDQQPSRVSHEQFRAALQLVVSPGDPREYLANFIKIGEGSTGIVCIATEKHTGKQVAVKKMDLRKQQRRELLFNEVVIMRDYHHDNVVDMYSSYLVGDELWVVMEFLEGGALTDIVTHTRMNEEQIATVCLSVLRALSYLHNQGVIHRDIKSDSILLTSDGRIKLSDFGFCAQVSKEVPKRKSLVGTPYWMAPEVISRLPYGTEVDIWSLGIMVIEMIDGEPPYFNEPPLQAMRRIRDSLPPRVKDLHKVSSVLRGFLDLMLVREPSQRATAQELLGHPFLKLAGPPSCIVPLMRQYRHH
T23 sequence (O95835 whole entry): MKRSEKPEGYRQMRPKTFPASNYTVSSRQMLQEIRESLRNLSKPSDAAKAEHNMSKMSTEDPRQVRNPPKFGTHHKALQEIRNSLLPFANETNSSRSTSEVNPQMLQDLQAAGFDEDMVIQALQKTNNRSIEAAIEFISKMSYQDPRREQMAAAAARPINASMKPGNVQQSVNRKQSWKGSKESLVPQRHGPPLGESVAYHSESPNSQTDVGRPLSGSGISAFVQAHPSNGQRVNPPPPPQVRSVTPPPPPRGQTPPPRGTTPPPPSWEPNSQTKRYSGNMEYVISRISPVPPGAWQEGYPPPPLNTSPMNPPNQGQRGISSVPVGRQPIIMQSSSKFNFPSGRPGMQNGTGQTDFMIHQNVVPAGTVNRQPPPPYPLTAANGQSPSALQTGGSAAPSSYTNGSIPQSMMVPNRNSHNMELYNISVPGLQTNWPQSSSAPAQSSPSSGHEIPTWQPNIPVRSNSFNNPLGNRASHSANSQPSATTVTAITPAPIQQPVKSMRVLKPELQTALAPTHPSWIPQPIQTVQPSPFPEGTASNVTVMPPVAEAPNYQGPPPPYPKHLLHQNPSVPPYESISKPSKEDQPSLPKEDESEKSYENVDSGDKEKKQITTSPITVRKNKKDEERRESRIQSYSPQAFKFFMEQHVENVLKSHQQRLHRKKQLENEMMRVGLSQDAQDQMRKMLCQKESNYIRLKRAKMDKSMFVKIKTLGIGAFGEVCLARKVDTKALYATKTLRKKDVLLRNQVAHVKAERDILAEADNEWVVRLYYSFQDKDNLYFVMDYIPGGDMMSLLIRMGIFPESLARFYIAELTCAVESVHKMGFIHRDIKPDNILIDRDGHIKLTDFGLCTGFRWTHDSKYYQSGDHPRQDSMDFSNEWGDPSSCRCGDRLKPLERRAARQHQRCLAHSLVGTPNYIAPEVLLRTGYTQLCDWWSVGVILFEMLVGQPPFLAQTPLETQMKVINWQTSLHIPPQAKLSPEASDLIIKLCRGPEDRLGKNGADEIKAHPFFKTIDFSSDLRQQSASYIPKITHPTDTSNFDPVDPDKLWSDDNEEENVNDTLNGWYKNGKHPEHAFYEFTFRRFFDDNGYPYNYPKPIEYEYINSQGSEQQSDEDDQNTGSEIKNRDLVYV
T11 sequence (Q16832 22-855): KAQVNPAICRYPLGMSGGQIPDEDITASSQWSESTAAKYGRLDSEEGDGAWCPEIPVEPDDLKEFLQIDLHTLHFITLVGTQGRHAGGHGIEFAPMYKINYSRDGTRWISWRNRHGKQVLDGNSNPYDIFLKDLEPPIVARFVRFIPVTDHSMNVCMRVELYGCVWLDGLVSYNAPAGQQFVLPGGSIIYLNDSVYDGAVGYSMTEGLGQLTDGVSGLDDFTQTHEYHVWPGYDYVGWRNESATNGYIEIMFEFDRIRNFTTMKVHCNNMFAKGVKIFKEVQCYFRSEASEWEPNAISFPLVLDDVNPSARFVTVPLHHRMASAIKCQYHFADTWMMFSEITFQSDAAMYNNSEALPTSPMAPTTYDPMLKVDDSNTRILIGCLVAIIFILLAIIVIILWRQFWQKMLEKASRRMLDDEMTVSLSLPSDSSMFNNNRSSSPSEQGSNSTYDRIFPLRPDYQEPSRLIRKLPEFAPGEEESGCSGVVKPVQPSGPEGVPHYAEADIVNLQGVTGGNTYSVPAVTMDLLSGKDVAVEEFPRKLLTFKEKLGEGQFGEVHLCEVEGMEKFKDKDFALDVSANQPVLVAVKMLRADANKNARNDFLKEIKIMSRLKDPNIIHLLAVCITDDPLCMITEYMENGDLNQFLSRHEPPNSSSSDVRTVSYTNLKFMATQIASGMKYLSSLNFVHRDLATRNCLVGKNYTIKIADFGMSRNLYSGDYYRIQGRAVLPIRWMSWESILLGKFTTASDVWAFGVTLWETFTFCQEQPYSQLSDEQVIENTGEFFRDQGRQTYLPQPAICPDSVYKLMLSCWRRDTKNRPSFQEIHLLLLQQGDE

Compound: Cc1ccccc1-n1c(C(C)Nc2nc(N)nc3nc[nH]c23)nc2cccc(C)c2c1=O (stereo not shown) [CAL-130]
- Percent of Control Binding [1]: 100%
- Percent of Control Binding [2]: 100%
- Percent of Control Binding [3]: 100%
- Percent of Control Binding [4]: 100%
- Percent of Control Binding [5]: 100%
- Percent of Control Binding [6]: 100%
- Percent of Control Binding [7]: 18%
- Percent of Control Binding [8]: 100%
- Percent of Control Binding [9]: 100%
- Percent of Control Binding [10]: 100%
- Percent of Control Binding [11]: 100%
- Percent of Control Binding [12]: 100%
- Percent of Control Binding [13]: 100%
- Percent of Control Binding [14]: 100%
- Percent of Control Binding [15]: 100%
- Percent of Control Binding [16]: 100%
- Percent of Control Binding [17]: 100%
- Percent of Control Binding [18]: 100%
- Percent of Control Binding [19]: 100%
- Percent of Control Binding [20]: 100%
- Percent of Control Binding [21]: 100%
- Percent of Control Binding [22]: 100%
- Percent of Control Binding [23]: 100%
- Percent of Control Binding [24]: 100%
- Percent of Control Binding [25]: 100%
- Percent of Control Binding [26]: 100%
- Percent of Control Binding [27]: 100%
- Percent of Control Binding [28]: 100%
- Percent of Control Binding [29]: 100%
- Percent of Control Binding [30]: 100%
- Percent of Control Binding [31]: 100%
- Percent of Control Binding [32]: 100%
- Percent of Control Binding [33]: 100%
- Percent of Control Binding [34]: 100%
- Percent of Control Binding [35]: 100%
- Percent of Control Binding [36]: 100%
- Percent of Control Binding [37]: 100%
